In patent US20200331950A1, “SGLTS INHIBITOR AND APPLICATION THEREOF” (SHANDONG DANHONG PHARMACEUTICAL CO., LTD., priority 2018, published 2020):
Marks after values point to notes of the source that are not given here.

Key:
[1] = tested on: db/db mice; assay: Fasting blood glucose in diabetic db/db mice; assay type: in vivo; conditions: fasted from 10:00, mean±S.E.M.
Method: (§1) Experimental Example 4: Study on the In Vivo Pharmacodynamics in Diabetic Db/Db Mice
The animals were kept in an animal breeding room with strictly controlled environmental conditions after they arrived. The animal breeding room was maintained at a temperature of 20-24° C. and a humidity of 40-70%. The temperature and humidity in the feeding room were monitored in real time by a hygrothermograph, and the temperature and humidity were recorded twice daily (one in the morning and the other in the afternoon). The lighting of the animal feeding room was controlled by an on-off electronic timing system, with lights for 12 hours and dark for 12 hours daily (turned on at 7:00 a.m. and turned off at 19:00 p.m). The mice were raised in separate cages and were given free access to feed (reproductive feed 17053113 for rats and mice, available from Beijing Keao Xieli Feed Co., Ltd.) and water during the experiment.
(§2) During the experiment, the animals were administrated with the corresponding vehicles or drugs according to the group with an administration time of 16:00 and an administration period of 8 weeks.
(§3) The dose was 5 mg/kg from week 1 to week 4; and the dose was 10 mg/kg from week 5 to week 8.
Random and fasting blood glucose levels were measured once a week.
Fasting blood glucose test: The mice fasted from 10:00 a.m., and blood glucose level was firstly measured at 16:00. Then the mice were administered with the drugs, and 2 hours later blood glucose level was measured again, and then feed intake was restored.
(§4) All of the data were entered into an Excel document and expressed in the form of mean±S.E.M. The differences between groups were compared using graphpad Prism 6 software and one-way analysis of variance (ANOVA). P value of less than 0.05 is considered a significant difference.

[2] = tested on: db/db mice; assay: Glycosylated hemoglobin (HbA1c) in diabetic db/db mice; assay type: in vivo; conditions: for HbA1c (%): fasted 6 hours; for Rate of Decline of HbA1c (%): vs. vehicle control group
Method: as §1, §2, §3
At weeks 4 and 8 of the experiment, the animals fasted for 6 hours, and blood samples were collected to measure glycosylated hemoglobin.
as §4

[3] = tested on: SD rats; assay: Oral glucose tolerance test (OGTT) in rats, second time; assay type: in vivo; conditions: second study, male SD rats, 10 mg/kg single intragastric administration
Method: Study on the In Vivo Efficacy of Oral Glucose Tolerance Test (OGTT) in Rats for the Second Time:
The experimental animals were allowed to adapt to the environment in the animal room for one week after they arrived.
The animals fasted in the metabolic cage for 18 hours, then were given drugs or vehicle (2 ml/kg) according to the above table, and subsequently were immediately given 50% glucose solution (2 g/kg, 4 ml/kg).
2 hours after the administration of glucose solution, feed intake was restored. Blood samples were taken at 0 min, 15 min, 30 min, 45 min, 60 min and 120 min respectively, and urine samples were collected at 0-24 h to test blood glucose, urine glucose (mg/200 g) and urine volume respectively.
All values are represented as averages. Statistical analysis was performed using Graphpad Prism 6 one-way analysis of variance and Tukey's multiple comparison test. P value of less than 0.05 is considered statistically significant.

[4] = In vivo pharmacokinetics in Beagle dogs; conditions: male Beagle dogs
Excerpt: Study on the In Vivo Pharmacokinetics in Beagle Dogs
The purpose of the experiment: Male beagle (Beagle) dogs were used as test animals and were given a single administration to determine the plasma concentration of the compound and evaluate the pharmacokinetic behavior.
Experimental method: Six male Beagle dogs were divided into 2 groups, with 3 dogs in an intravenous injection group and 3 dogs in an oral administration group. In the intravenous injection group, the test compound was mixed with an appropriate amount of vehicle (20% polyethylene glycol-400 (PEG400)/10% polyethylene glycol-15 hydroxy stearate (available from solutol)/70% water), then vortexed and sonicated to prepare 1 mg/mL clear solution, which was filtered by microporous membrane. In the oral administration group, 20% polyethylene glycol-400 (PEG400)/10% polyethylene glycol-15 hydroxy stearate (available from solutol)/70% water was used as a vehicle and mixed with the test compound, then vortexed and sonicated to prepare 1 mg/mL clear solution. The dogs were given intravenous administration at a dose of 1 mg/kg or oral administration at a dose of 2 mg/kg. Whole blood was collected at a certain period of time to prepare the plasma. The drug concentration of the plasma was analyzed by LC-MS/MS method, and the pharmacokinetic parameters were calculated using Phoenix WinNonlin software (Pharsight Company, USA).

[5] = Week 1, 5 mg/kg intragastric once daily
[6] = Week 2, 5 mg/kg intragastric once daily
[7] = Week 3, 5 mg/kg intragastric once daily
[8] = Week 4, 5 mg/kg intragastric once daily
[9] = Week 5, 10 mg/kg intragastric once daily (5 mg/kg weeks 1-4)
[10] = Week 6, 10 mg/kg intragastric once daily (5 mg/kg weeks 1-4)
[11] = Week 7, 10 mg/kg intragastric once daily (5 mg/kg weeks 1-4)
[12] = Week 8, 10 mg/kg intragastric once daily (5 mg/kg weeks 1-4)
[13] = Week 8, 5 mg/kg weeks 1-4, 10 mg/kg weeks 5-8, once daily

Row | SMILES | Fasting blood glucose [1, 5] | Fasting blood glucose [1, 6] | Fasting blood glucose [1, 7] | Fasting blood glucose [1, 8] | Fasting blood glucose [1, 9] | Fasting blood glucose [1, 10] | Fasting blood glucose [1, 11] | Fasting blood glucose [1, 12] | HbA1c (%) [2, 8] | Rate of Decline of HbA1c (%) [2, 8] [%] | HbA1c (%) [2, 13] | Rate of Decline of HbA1c (%) [2, 13] [%] | further results
1 | CS[C@H]1O[C@@H](c2ccc(C)c(Cc3ccc(C4=CCC(F)(F)CC4)cc3)c2)[C@H](O)[C@@H](O)[C@@H]1O [WXD003] | 14.8 ± 2.34 | 19.9 ± 1.32 | 15.8 ± 1.48 | 14.3 ± 1.29 | 17.4 ± 1.72 | 10.9 ± 1.42 | 11.7 ± 1.30 | 13.0 ± 1.36 | 5.7*** % | −32 | 5.9**** % | −39 | 
2 | CCc1ccc([C@@H]2O[C@H](SC)[C@@H](O)[C@H](O)[C@H]2O)cc1Cc1ccc(C2=CCC(F)(F)CC2)cc1 [WXD010] | 14.7 ± 2.50 | 14.4 ± 1.47 | 15.8 ± 1.40 | 14.9 ± 1.24 | 15.9 ± 0.79 | 11.0 ± 1.67 | 9.6 ± 0.91 | 8.1 ± 0.51 | 5.8*** % | −31 | 5.1**** % | −47 | OGTT blood glucose level AUC0-2 hr ([3]; glucose 2 g/kg): 720 mmol/L/min; Urine glucose level ([3]; urine 0-24 h): 2118.7**** mg/200 g, BW; Urine volume ([3]; urine 0-24 h): 20.0**** mL/200 g, BW; clearance ([4]; dog, plasma, intravenous 1 mg/kg or oral 2 mg/kg, read-out: Cl (clearance rate)): 6.9 mL/min/kg; half-life ([4]; dog, plasma, intravenous 1 mg/kg or oral 2 mg/kg, read-out: T1/2 (half-life) (converted)): 2.4 h; Vd ([4]; dog, plasma, intravenous 1 mg/kg or oral 2 mg/kg, read-out: Vdss (distribution volume)): 1.49 L/kg; bioavailability ([4]; dog, plasma, intravenous 1 mg/kg, oral 2 mg/kg, read-out: F % (oral bioavailability)): 82%; Cmax ([4]; dog, single administration, intravenous 1 mg/kg or oral 2 mg/kg, plasma): 1290 nM; Oral DNAUC (AUCPO/Dose) ([4]; oral 2 mg/kg): 4051 nM · h/mpk
